Reference: ChEMBL document CHEMBL1201862, “PubChem BioAssay data set” (2004)
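Results reflect a 48-hour exposure of cells in 96-well plates to compound at five concentrations. GI50 is the concentration that inhibits growth by half.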 Activity calls are given as the source filed them. Rule as the data show it: active = GI50 up to about 1.1 µM and inactive = higher.

Key:
Test in all cases: NCI-60 cell line screen, 48 h
CCRF-CEM = tested on: CCRF-CEM
HT-29 = tested on: HT-29
DU-145 = tested on: DU-145
A498 = tested on: A498
Malme-3M = tested on: Malme-3M
SR = tested on: SR
UACC-62 = tested on: UACC-62
SF-295 = tested on: SF-295
SK-MEL-2 = tested on: SK-MEL-2
MOLT-4 = tested on: MOLT-4
M14 = tested on: M14
SN12C = tested on: SN12C
T47D = tested on: T47D
EKVX = tested on: EKVX
OVCAR-3 = tested on: OVCAR-3
KM12 = tested on: KM12
IGROV-1 = tested on: IGROV-1
UO-31 = tested on: UO-31
SK-MEL-5 = tested on: SK-MEL-5
OVCAR-4 = tested on: OVCAR-4

| Structure (SMILES) | GI50 (CCRF-CEM) | GI50 (HT-29) | GI50 (DU-145) | GI50 (A498) | GI50 (Malme-3M) | GI50 (SR) | GI50 (UACC-62) | GI50 (SF-295) | GI50 (SK-MEL-2) | GI50 (MOLT-4) | GI50 (M14) | GI50 (SN12C) | GI50 (T47D) | GI50 (EKVX) | GI50 (OVCAR-3) | GI50 (KM12) | GI50 (IGROV-1) | GI50 (UO-31) | GI50 (SK-MEL-5) | GI50 (OVCAR-4) |
| --- | --- | --- | --- | --- | --- | --- | --- | --- | --- | --- | --- | --- | --- | --- | --- | --- | --- | --- | --- | --- |
| CCCC(=O)OC(OC(=O)CCC)c1ccc([N+](=O)[O-])o1 | 28.2 µM (inactive) | 22.6 µM (inactive) | 36.7 µM (inactive) | > 100 µM (inactive) | 19.2 µM (inactive) | 18 µM (inactive) | 20.9 µM (inactive) | > 100 µM (inactive) | 22.8 µM (inactive) | 31.1 µM (inactive) | 19.8 µM (inactive) | 17.3 µM (inactive) | 21.4 µM (inactive) | 26.1 µM (inactive) | 20.9 µM (inactive) | 37.6 µM (inactive) | 14.8 µM (inactive) | 21.1 µM (inactive) | 32.4 µM (inactive) | – |
| COc1ccc(C[n+]2cccc(O)c2)cc1 | > 100 µM (inactive) | > 100 µM (inactive) | > 100 µM (inactive) | > 100 µM (inactive) | > 100 µM (inactive) | > 100 µM (inactive) | > 100 µM (inactive) | > 100 µM (inactive) | > 100 µM (inactive) | > 100 µM (inactive) | > 100 µM (inactive) | > 100 µM (inactive) | > 100 µM (inactive) | > 100 µM (inactive) | > 100 µM (inactive) | > 100 µM (inactive) | > 100 µM (inactive) | > 100 µM (inactive) | > 100 µM (inactive) | – |
| Cc1cc(C)nc(NS(=O)(=O)c2ccc(NC(=O)c3cc([N+](=O)[O-])cc([N+](=O)[O-])c3)cc2)n1 | 59.7 µM (inactive) | 31.4 µM (inactive) | > 100 µM (inactive) | > 100 µM (inactive) | 42.1 µM (inactive) | 0.0755 µM (active) | 77.3 µM (inactive) | – | > 100 µM (inactive) | 1.79 µM (inactive) | 45.8 µM (inactive) | 70.6 µM (inactive) | 49.4 µM (inactive) | – | 30.5 µM (inactive) | 50.7 µM (inactive) | > 100 µM (inactive) | > 100 µM (inactive) | 95.3 µM (inactive) | 22.9 µM (inactive) |
| CC(C)Oc1cccc(N2C(CCc3c[nH]c4ccc(Br)cc34)=NS(=O)(=O)c3cnccc32)c1 | 95.5 µM (inactive) | 26.2 µM (inactive) | 94.4 µM (inactive) | 35.4 µM (inactive) | 80 µM (inactive) | 35.3 µM (inactive) | 33.3 µM (inactive) | 25.7 µM (inactive) | 53.2 µM (inactive) | 14.8 µM (inactive) | 32.5 µM (inactive) | 69 µM (inactive) | 21.2 µM (inactive) | 29.2 µM (inactive) | 51.3 µM (inactive) | 49.7 µM (inactive) | – | 3.64 µM (inactive) | 35 µM (inactive) | 27.5 µM (inactive) |
| O=C1/C(=C/c2ccc(Cl)cc2)N=C(c2ccccc2)N1c1ccc(S(=O)(=O)Nc2nccs2)cc1 | 27 µM (inactive) | 21.9 µM (inactive) | > 100 µM (inactive) | 43.6 µM (inactive) | 30.9 µM (inactive) | 32.7 µM (inactive) | 18.7 µM (inactive) | 56.5 µM (inactive) | 16 µM (inactive) | 33.2 µM (inactive) | 47.5 µM (inactive) | 64 µM (inactive) | 21.7 µM (inactive) | 31.5 µM (inactive) | 30.5 µM (inactive) | 24.8 µM (inactive) | – | 23.6 µM (inactive) | 23.1 µM (inactive) | 50.8 µM (inactive) |
| COc1ccc(S(=O)(=O)Nc2ccc(-c3csc(N4C(=O)/C(=C/c5ccccc5)N=C4c4ccccc4)n3)cc2)cc1Cl | 43.5 µM (inactive) | > 100 µM (inactive) | 27.8 µM (inactive) | 11.3 µM (inactive) | 38.3 µM (inactive) | 28.1 µM (inactive) | 16.8 µM (inactive) | 41.7 µM (inactive) | 25.9 µM (inactive) | 25.1 µM (inactive) | 24.8 µM (inactive) | 65.6 µM (inactive) | 17.9 µM (inactive) | – | 36.2 µM (inactive) | 33.7 µM (inactive) | 38.6 µM (inactive) | 5.62 µM (inactive) | 28.4 µM (inactive) | 27.2 µM (inactive) |
